Patent publication US20140155321A1, “Polypeptides and Their Use” (Novabiotics Limited, priority 2012, published 2014)
Read-outs that look alike come from different tables or passages of the source.

Key:
[1] = tested on: Malassezia pachydermatis (CBS6536); settings: for positive skin cultures / approximate number of cfu from skin biopsies, Group ave.: 10 d post-infection, 5% (w/v) NP108 or 2% (w/v) miconazole topical; for approximate number of cfu from skin biopsies, Group ave.: 3 days incubation; for Group ave. Day+10 clinical score: topical once a day for 6 d from 48 h post-infection, 5% (w/v) NP108 or 2% (w/v) miconazole, score 3.0 = significant crusting/erythema
Procedure: Determination of the Efficacy of NP108 Against Malassezia pachydermatis (CBS6536) in a Murine Model of Localised Dermatophyte Skin Infection (10 Days Post-Infection)
In this Malassezia spp. skin infection study, 30 male CD1 mice (10 per treatment group) were scored daily for 10 d post-infection based on the clinical observations of the infected area. Mice were treated with test article, 5% (w/v) NP108, 2% (w/v) miconazole or vehicle commencing 48 h post-infection for 6 d. Groups of 10 mice were euthanized for culture of skin tissue 10 d post-infection. Skin samples were dissected into 10 pieces per mouse and each piece streaked onto Modified Leeming Notman agar (MLNA) for culture at 30° C. for up to 7 d. Data from these samples has been recorded as number positive for Malassezia pachydermatis CBS6536 growth per mouse and approximate number of quantifiable cfu per streaked sample; plates were read after 3 d and 7 d incubation. Test article NP108 was supplied as a 5% (w/v) dosing preparation in 65% PEG14000, supplied ready to administer without any reconstitution or dilution required, as was vehicle preparation also.

[2] = tested on: human dermal fibroblast (BJ) cells; test: Cytotoxicity versus human dermal fibroblast (BJ) cells; format: cell-based; settings: BJ fibroblasts
Procedure: (§1) Haematotoxicity versus 10% human red blood cells and cyctotoxicity versus human dermal fibroblast (BJ) cells and human lung epithelial (A549) cells was determined by standard in vitro procedures known to those skilled in the art (Table 1 and FIG. 1).

human red blood cells = test: Haematotoxicity (haemolysis) versus 10% human red blood cells; format: cell-based
Procedure: as §1

[3] = tested on: M. pachydermatis NCPF3667; test: MIC by modified CLSI M27-A3 broth dilution versus M. pachydermatis NCPF3667; format: cell-based, Malassezia pachydermatis; settings: Table 2
Procedure: (§2) The minimum inhibitory concentration (MIC) of all materials was determined according to methods described in the Clinical and laboratory Standards institute Approved Standard “Reference Method for Broth Dilution Antifungal Susceptibility Testing of Yeasts—Third Edition (M27-A3)” with the following modifications. In place of RPMI-1640 liquid medium, Modified Christensen's Medium, without the addition of agar, was used.

M. pachydermatis CBS6536 [4] = test: Antifungal efficacy in Head & Shoulders conditioner, surviving colony count; format: cell-based, Malassezia pachydermatis; settings: FIG. 6
Procedure: (§3) In a further experiment, the effect of incubation time on killing of Malassezia spp. was investigated. The following materials were tested: • 1. 0.04% (w/v) Zinc Pyrithione in 19.2% (v/v) Head &Shoulders conditioner • 2. 1.0% (w/v) NP108 in 19.2% (v/v) Head & Shoulders conditioner • 3. 19.2% (v/v) Head & Shoulders conditioner
(§4) All yeast inocula for this experiment were prepared to the 0.5 McFarland Standard. 400 d of yeast inoculum was exposed to 100 μl of the materials described above and incubated at 30° C. for 0, 3, 10, 30 or 60 min, followed by washing to remove all traces of the materials. Serial dilutions of the yeasts were prepared (10^0-10^−5; 10-fold dilutions) and 100 μl was spread on Modified Christensen's Medium and incubated at 30° C. for 48 h and numbers of surviving colonies counted. All experiments were carried out in triplicate.
In the following experiment, all samples of M. pachydermatis CBS6536 (0.5 McFarland Standard) were exposed to 10% (v/v) Head & Shoulders (H & S) Conditioner, containing 0 (0%), 1.0 (0.1%) or 10.0 (1.0%) mg/ml NP108. The positive control samples were exposed to 10% (v/v) Head & Shoulders Conditioner. The negative control samples were exposed to water alone.

M. furfur DSMZ6170 [5] = test: Antifungal efficacy in conditioner vehicles, surviving colony count; format: cell-based, Malassezia furfur; settings: for killing of M. furfur: 60 min exposure
Procedure: The antifungal efficacy of NP108 was tested in a conditioner vehicle. The following materials were tested: • 1. 10% (v/v) Head & Shoulders conditioner (anti-dandruff conditioner) • 2. 10% (v/v) Pantene conditioner (“normal” conditioner) • 3. 10% (v/v) Pantene conditioner (“normal” conditioner)+4% (w/v) NP 108 • 4. Phosphate Buffered Saline (PBS)
as §4, with “400 μl” for “400 d”, “above for 1 h” for “above and incubated”, “at 37° C.,” for “at 30° C. for 0, 3, 10, 30 or 60 min,”
as §3, §4
In the following experiment, all samples of M. furfur DSMZ6170 (0.5 McFarland Standard) were exposed to 10% (v/v) H & S Conditioner, containing 10.0 (1.0%) mg/ml NP108 or 0.4 mg/ml zinc pyrithione (the active ingredient in H & S shampoo). The control samples were exposed to 10% (v/v) H & S Conditioner. The negative control samples were exposed to water alone (data not shown).
In the following experiment, all samples of M. furfur DSMZ6170 (0.5 McFarland Standard) were exposed to 10% (v/v) H & S Conditioner or 10% (v/v) Pantene Conditioner and a further treatment of 40 mg/ml NP108 (4.0%) in 10% (v/v) Pantene Conditioner. The control sample was exposed to PBS alone. All incubations were carried out for 60 min.

M. furfur DSMZ6170 [6] = test: MIC by modified CLSI M27-A3 broth dilution versus M. furfur DSMZ6170; format: cell-based, Malassezia furfur
Procedure: as §2

M. furfur DSMZ6170 [7] = test: Antifungal efficacy in a shampoo vehicle, surviving colony count; format: cell-based, Malassezia furfur; settings: 40 mg/ml NP108 in 10% (v/v) Pantene shampoo; 60 min exposure; FIG. 5
Procedure: The antifungal efficacy of NP108 was tested in a shampoo vehicle. The following materials were tested: • 1. 10% (v/v) Head & Shoulders shampoo (anti-dandruff shampoo) • 2. 10% (v/v) Pantene shampoo (“normal” shampoo) • 3. 10% (v/v) Pantene shampoo (“normal” shampoo)+4% (w/v) NP108 • 4. Phosphate Buffered Saline (PBS)
as §4, with “400 μl” for “400 d”, “above for 1 h” for “above and incubated”, “at 37° C.,” for “at 30° C. for 0, 3, 10, 30 or 60 min,”, “the yeast inocula” for “the yeasts”
In the following experiment, all samples of M. furfur DSMZ6170 (0.5 McFarland Standard) were exposed to 10% (v/v) Head & Shoulders (H & S) Shampoo, 10% (v/v) Pantene Shampoo and 10% (v/v) Pantene Shampoo containing 40.0 (4.0%) mg/ml NP108. The negative control samples were exposed to phosphate-buffered saline (PBS) alone. H & S Shampoo contains zinc pyrithione (˜1%) as an antifungal agent proven to kill Malassezia spp.

M. pachydermatis CBS6536 [8] = test: MIC by modified CLSI M27-A3 broth dilution versus M. pachydermatis CBS6536; format: cell-based, Malassezia pachydermatis
Procedure: as §2

M. furfur DSMZ6170 [9] = settings: 0.4 mg/ml zinc pyrithione, under in vitro conditions (not in conditioner)
[10] = Table 1, 1×10^6-5×10^6 cells/ml, Modified Christensen's Medium
[11] = Table 2, M. pachydermatis CBS6536

Clc1ccc(COC(Cn2ccnc2)c2ccc(Cl)cc2Cl)c(Cl)c1 (centres unmarked) [miconazole, reference compound]
positive skin cultures [1]: 100% | approximate number of cfu from skin biopsies, Group ave. [1]: 131.4 cfu/mouse | Group ave. Day+10 clinical score [1]: 1.31

Poly-L-Lysine [NP108]
Cytotoxicity (BJ; LD50) [2]: 4,500 μg/ml | tolerability of treatment ([1]; 5% (w/v) NP108 in 65% PEG14000, topical, throughout the study): well tolerated | positive skin cultures [1]: 84% | approximate number of cfu from skin biopsies, Group ave. [1]: 34.6 cfu/mouse | Group ave. Day+10 clinical score [1]: 0.65 | Haemolysis (LD50) (human red blood cells): >10,000 μg/ml | MIC50 Median [3]: 15.6 µg/mL | MIC80 Median [3]: 15.6 to 31.3 µg/mL | MIC100 Median [3]: 31.3 µg/mL | antifungal activity (M. pachydermatis CBS6536 [4]; 1 mg/ml NP108 (0.1%) in H & S conditioner): no antifungal activity | killing of M. pachydermatis (M. pachydermatis CBS6536 [4]; 10 mg/ml NP108 (1.0%) in H & S conditioner, after as little as 3 min exposure): kills | killing of M. furfur (M. furfur DSMZ6170 [5]; 10 mg/ml NP108 (1.0%) in H & S conditioner, FIG. 7): Complete killing | antifungal activity (M. furfur DSMZ6170 [5]; 10 mg/ml NP108 (1.0%) in H & S conditioner, after as little as 3 min exposure, time-dependent increase, FIG. 7): demonstrates antifungal activity | killing of M. furfur (M. furfur DSMZ6170 [5]; 40 mg/ml NP108 (4.0%) in 10% (v/v) Pantene conditioner, FIG. 8): completely killing | MIC50 Median (M. furfur DSMZ6170 [6]; Table 2): 250 µg/mL | MIC80 Median (M. furfur DSMZ6170 [6]; Table 2): 1000 µg/mL | MIC80 Range (M. furfur DSMZ6170 [6]; Table 2): 500 to 2000 µg/mL | MIC100 Median (M. furfur DSMZ6170 [6]; Table 2): 2000 µg/mL | MIC100 Range (M. furfur DSMZ6170 [6]; Table 2): 2000 to 4000 µg/mL | MIC50 Range (M. furfur DSMZ6170 [6]; Table 2, three independent experiments): 125 to 500 µg/mL | killing of M. furfur (surviving cfu/ml) (M. furfur DSMZ6170 [7]): kills | MIC50 (M. pachydermatis CBS6536 [8]; [10]): 62.5 to 125 µg/mL | MIC80 (M. pachydermatis CBS6536 [8]; [10]): 62.5 to 125 µg/mL | MIC100 (M. pachydermatis CBS6536 [8]; [10]): 125 µg/mL | MIC50 Median (M. pachydermatis CBS6536 [8]; [11]): 31.25 µg/mL | MIC80 Median (M. pachydermatis CBS6536 [8]; [11]): 62.5 µg/mL | MIC80 Range (M. pachydermatis CBS6536 [8]; [11]): 31.25 to 125 µg/mL | MIC100 Median (M. pachydermatis CBS6536 [8]; [11]): 62.5 µg/mL | MIC100 Range (M. pachydermatis CBS6536 [8]; [11]): 31.25 to 125 µg/mL | MIC50 Range (M. pachydermatis CBS6536 [8]; Table 2, M. pachydermatis CBS6536, three independent experiments): 15.63 to 31.25 µg/mL

zinc pyrithione [reference compound]
antifungal activity (M. furfur DSMZ6170 [5]; 0.4 mg/ml zinc pyrithione in H & S conditioner, FIG. 7): no antifungal activity | killing of M. furfur (M. furfur DSMZ6170 [9]): sufficient to kill
